Test results reported in paper PMC7606612, “Identification of HMGA2 inhibitors by AlphaScreen-based ultra-high-throughput screening assays” (Scientific Reports, 2020).
Values joined by “and” are separate entries in the source; they are usually repeats but may differ in a detail not shown here. Equal entries are not always repeated.

Assays:
[1] = target: T1, HMGA2-DNA interactions (Mus musculus, UniProt P52927); experiment: AlphaScreen primary uHTS assay of His-tagged HMGA2 binding to biotin-labeled DNA oligomer FL814; set-up: species or system mammalian
T1 construct: made in house
T1 sequence (P52927 2-108 limits assumed): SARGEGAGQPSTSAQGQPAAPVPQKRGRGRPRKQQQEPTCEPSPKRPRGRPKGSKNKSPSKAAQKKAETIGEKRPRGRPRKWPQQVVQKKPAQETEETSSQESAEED
Experimental: To address these limitations, we established a new assay using AlphaScreen technology. The assay entails binding a biotin-labeled DNA oligomer FL814 and His-tagged HMGA2 to streptavidin-coated donor beads and nickel chelate (Ni-NTA) acceptor beads, respectively (Fig. 1). A series of DNA binding studies were performed to determine the optimal conditions for the AlphaScreen Primary Assay (Fig. S1a–d). […] These two inhibitors are readily available for purchase and served as positive controls for HMGA2-DNA interaction inhibition in the assay.
Using a Labcyte Echo 555 acoustic dispenser 5 nL of DMSO were added to columns 1–4 and 45–48 of a white 1536 well plate, while 5 nL of 2 mM compounds in DMSO were added to columns 5–44. Using a Beckman BioRAPTR FRD bulk reagent dispenser 1 µL of assay buffer (30 mM Citrate, 300 mM NaCl, and 0.005% Tween 20) was added to columns 1 and 2. Next 1 µL of assay buffer containing 125 nM HMGA2 was added to columns 3–48 with a Beckman BioRAPTR FRD bulk reagent dispenser. Finally, 1 µL of assay buffer containing 25 nM FL814 was added to every well of the plate using a Beckman BioRAPTR FRD bulk reagent dispenser. The plate was then centrifuged at 200 × g for 1 min. After 30 min at room temperature, 2 µL of bead buffer (10 mM HEPES, 300 mM NaCl and 0.005% Tween 20) containing 20 µg/mL anti-6xHIS acceptor beads and 20 µg/mL streptavidin donor beads were dispensed into every well using a Beckman BioRAPTR FRD bulk reagent dispenser. The plates were then centrifuged at 200 × g for 1 min. After 1 h at room temperature the plates were read on a Perkin Elmer Envision multimode plate reader in AlphaScreen mode.

[2] = system: BTSC#83; experiment: Western blotting and qRT-PCR expression analysis, BTSC#83; type: cell-based
Experimental: The single-cell suspension was obtained by mechanical disaggregation of the spheres and total proteins were extracted 48 h later, as previously described. After separation by SDS–polyacrylamide gel electrophoresis, proteins were blotted on nitrocellulose membranes (GE Healthcare Europe Gmb) and hybridized with the following antibodies: anti-HMGA1, anti-HMGA2 (Genetex) or affinity-purified anti-HMGA2, anti-α-actin (SantaCruz Biotechnologies). The single-cell suspension was obtained by mechanical disaggregation of the spheres and RNA was extracted 48 h later, by using Direct-zol RNA MiniPrep (Zymo Research). One μg of RNA was retrotranscribed, by using QuantiTect® Reverse Transcription Kit (Qiagen) and qRT-PCR was performed as described. The 2^–ΔΔCt formula was used to calculate the differential gene expression.

[3] = target: T2, HMGA2 (Mus musculus, UniProt P52927); experiment: Isothermal titration calorimetry (ITC), titration into HMGA2; type: binding, mammalian; conditions: for HMGA2 Binding site: number of sites
T2 construct: made in house
T2 sequence (P52927 2-108 limits assumed): T1 sequence (P52927 2-108 limits assumed)
Experimental: ITC experiments were conducted using a VP-ITC titration calorimeter (MicroCal, Inc., Northampton, MA) interfaced to a PC. Origin 7.0, supplied by the manufacturer was used for data acquisition. […] The heat liberated or absorbed is observed as a peak corresponding to the power required keeping the sample and reference cells at identical temperatures. The peak produced during the injection is converted to heat output by integration and corrected for cell volume and sample concentration. […] The net enthalpy for the titration reaction was determined by subtraction of the component heats of dilution.

[4] = system: BTSC#30p; experiment: Light microscopy of morphology / differentiation, BTSC#30p; type: cell-based; conditions: 100 µM and 200 µM, 6 days
[5] = system: anaplastic thyroid carcinoma cell line 8505c; experiment: Chromatin immunoprecipitation (ChIP) of HMGA2 on ID2 promoter regions A and B; type: cell-based, human; conditions: 6 days
Source text: The role of HMGA1 and HMGA2 in regulating ID2 transcription was confirmed by analyzing its expression in mouse embryonic fibroblasts (MEFs) knock-out for HMGA1, HMGA2, and the A1/A2 double mutant, respectively. […] We identified two AT-rich regions, hereafter indicated as “region A” and “region B”, in the human ID2 promoter, containing the HMGA2 consensus sequence[26] (Table S2) for our ChIP experiments. Due to availability, the high proliferation rate, and the expression of HMGA proteins, the anaplastic thyroid carcinoma cell line 8505c was used.
Chromatin immunoprecipitation was performed as described. Briefly, for each sample, 5 × 10^6 cells were collected by trypsinization and cross-linked with 1% formaldehyde; after sonication, the samples were immunoprecipitated with 10 µL anti-HMGA2 antibody (Genetex) or with control normal rabbit IgG and the chromatin was extracted. qPCR amplification was performed on 6 µL of immunoprecipitated DNA, using primers amplifying regions A and B of the ID2 promoter (Table S2). Ct values of samples precipitated with anti-HMGA2 and IgG antibodies were normalized with Ct values of input DNA. Fold change enrichment was calculated in comparison to normalized IgG, using the 2^−ΔΔCt formula. P values were calculated by using one-way ANOVA followed by Sidak’s multiple comparison test.

[6] = system: BTSC#83; experiment: Light microscopy of morphology / differentiation, BTSC#83; type: cell-based; conditions: 100 µM and 200 µM, 6 days
[7] = target: T1, HMGA2-DNA interactions; experiment: Protein-DNA interaction ELISA (PDI-ELISA) assay; type: binding, mammalian; conditions: inhibition of HMGA2-DNA interactions, PDI-ELISA
Source text: The PDI-ELSA assays were described previously[33] and used to determine the inhibition IC50 against HMGA2-DNA interactions. The apparent inhibitory IC50 values were obtained using the following equation: y=min+(max-min/1+10^((x-logIC50)×Hillslope) , where x, y, max, and min represent the inhibitor’s concentration, the inhibition level, the maximum inhibition value, and the minimum inhibition value, respectively.

[8] = no reference given; cited from earlier work

inhibition at 5 µM ([1]; LOPAC1280 screen, final concentration of 5 µM): ≥ 50% | inhibition of HMGA2-DNA interactions (in words) ([1]; confirmed hits that do not bind to DNA): strongly inhibit HMGA2-DNA interactions | IC50 ([1]; titration, HMGA2-FL814 interactions, Fig. 3a): 2580 nM and 2600 nM | –TΔS ([3]; first type of binding sites): 5.56 kcal/mol | HMGA2 Binding site ([3]; first type): three | HMGA2 Binding site ([3]; first type, listed as Suramin): 2.81 | HMGA2 Binding site ([3]; second type): two | HMGA2 Binding site ([3]; second type, listed as Suramin): 2 | − TΔS ([3]; second type of binding sites): 0.24 kcal/mol | Kd ([3]; second type of binding sites, read-out: HMGA2 Ka (M^−1) (converted)): 23000 nM | total of suramin binding sites on HMGA2 ([3]; two types, confirmed by mass spectrometry): five | IC50 [7]: 2780 ± 100 nM
SMILES: Cc1ccc(C(=O)Nc2ccc(S(=O)(=O)O)c3cc(S(=O)(=O)O)cc(S(=O)(=O)O)c23)cc1NC(=O)c1cccc(NC(=O)Nc2cccc(C(=O)Nc3cc(C(=O)Nc4ccc(S(=O)(=O)O)c5cc(S(=O)(=O)O)cc(S(=O)(=O)O)c45)ccc3C)c2)c1 [suramin]
expression of HMGA1 ([2]; Western blotting and qRT-PCR): slightly reduced | expression of HMGA2 ([2]; Western blotting and qRT-PCR): slightly reduced | expression of SNAIL ([2]; qRT-PCR, 100 µM for 48 h): significantly reduced | cell morphology / induction of differentiation [4]: acquire flat epithelial morphology | HMGA2 binding to ID2 promoter regions A and B (ChIP) ([5]; 100 µM): did not detect significant HMGA2 binding reduction | HMGA2 binding to ID2 promoter regions A and B (ChIP) ([5]; 200 µM): drastic reduction in the enrichment | cell morphology / induction of differentiation [6]: adhere to the bottom of the well and extend neurite-like structures | oral bioavailability [8]: not orally bioavailable
